Laboratory results: patent publication US20260224465A1, “COMPOSITIONS COMPRISING A RETINOID AND A PROCESSED OAT INGREDIENT” (Kenvue Brands LLC, priority 2023, published 2026)

Legend:
Format in all cases: cell-based
CRABP2 [1] = experiment: CRABP2 gene expression (qPCR) in human skin explants; conditions: human abdominal skin explants, topical 4 μL in PgETOH, 48 hours
Experimental: (§1) Propylene glycol/ethanol (PgETOH) (3:7) (w/w) was used as a vehicle. 1% Colloidal oat (Avena Sativa Kernel Flour, Oat Cosmetics, Southampton, United Kingdom) and 0.1% Retinol solutions were each prepared in PgETOH as shown in Tables 4-7. Combinations were prepared by adding the appropriate amount of test solutions to arrive at the final concentrations as shown. Abdominal skin samples were obtained from human adults undergoing abdominoplasty surgery. Informed consent was obtained from each patient, and all experimental steps were approved by an institutional review board (IRB). Subcutaneous fat was carefully removed and skin biopsies of 0.93 cm^2 were prepared under sterile conditions and acclimated in DMEM/F12 (1:1) medium, 2% heat-inactivated fetal bovine serum, 10 μg/mL insulin, 10 ng/mL hydrocortisone, 10 ng/mL EGF, 1x ABAM under a 5% CO2 humidified atmosphere overnight. Skin explants were treated topically with 4 μL of each formulation for 48 hours. […] The fold changes were calculated in comparison to the untreated or vehicle controls and two-tailed two-sample Student t-tests (Microsoft Office Excel 2007; Microsoft, Redmond, WA, USA) were performed. Synergies were calculated as described above. […]

HAS3 = HAS3 gene expression (qPCR) in human skin explants; conditions: human abdominal skin explants, topical 4 μL in PgETOH, 48 hours
Experimental: as §1

HBEGF = HBEGF gene expression (qPCR) in human skin explants; conditions: human abdominal skin explants, topical 4 μL in PgETOH, 48 hours
Experimental: as §1

IL8 [2] = experiment: IL8 gene expression (qPCR) in human skin explants; conditions: human abdominal skin explants, topical 4 μL in PgETOH, 48 hours
Experimental: Propylene glycol/ethanol (PgETOH) (3:7) (w/w) was used as a vehicle. 1% Colloidal oat (Avena Sativa Kernel Flour, Oat Cosmetics, Southampton, United Kingdom) and 0.1% Retinol solutions were each prepared in PgETOH as shown in Tables 4-7. Combinations were prepared by adding the appropriate amount of test solutions to arrive at the final concentrations as shown.
Abdominal skin samples were obtained from human adults undergoing abdominoplasty surgery. Informed consent was obtained from each patient, and all experimental steps were approved by an institutional review board (IRB). Subcutaneous fat was carefully removed and skin biopsies of 0.93 cm^2 were prepared under sterile conditions and acclimated in DMEM/F12 (1:1) medium, 2% heat-inactivated fetal bovine serum, 10 μg/mL insulin, 10 ng/mL hydrocortisone, 10 ng/mL EGF, 1x ABAM under a 5% CO2 humidified atmosphere overnight. Skin explants were treated topically with 4 μL of each formulation for 48 hours. […]
Reverse transcription (RT) was performed using the Applied Biosystems High Capacity Reverse Transcription Kit (ThermoFisher Scientific, Bridgewater, NJ). […] The fold changes were calculated in comparison to the untreated or vehicle controls and two-tailed two-sample Student t-tests (Microsoft Office Excel 2007; Microsoft, Redmond, WA, USA) were performed. Synergies were calculated as described above. […]

CRABP2 [3] = experiment: CRABP2 gene expression (qPCR) in primary human dermal fibroblasts; conditions: 30 hours of treatment, normalized against POLR2A, concentration given by sample
Experimental: (§2) CRAPB2, IL8 and HAS2 were evaluated in several samples containing fermented oat, retinol, and combinations of the two in varying amounts. Retinol (BASF, 50C) was prepared by dissolving Retinol in Dimethyl Sulfoxide (DMSO) for a concentration of 20% Retinol. Retinol was then further diluted in DMEM with GlutaMAX media supplemented with 1% FBS and 1X Penn/Strep for a stock concentration of (1.1×10^−4) % and (1.1×10^−5) % Retinol. […] Fermented Oat (aurafirm P, Oat Cosmetics, Hampshire, United Kingdom; INCI Aqua, Avena sativa (Oat) Kernel Extract, Lactobacillus Ferment, Sodium Benzoate, Potassium Sorbate) was diluted in media to provide 0.2% and 1.0% Fermented Oat solutions. Primary human dermal fibroblasts were acquired from Lifeline Cell Technology, LLC (Frederick, MD 21701; lot 0967). The donor demographics were as follows: person, fibroblasts isolated from breast. Fibroblasts were cultured and expanded using Dermal Fibroblast Culture Medium (Zenbio, Inc, Durham, NC 27713). […] The cDNA was evaluated by qPCR (using the QuantStudio™ 7 Flex Real-Time PCR System from Applied Biosystems, Waltham, MA). […] The fold changes were calculated in comparison to the untreated control and two-tailed two-sample Student t-tests (Microsoft Office Excel 2007; Microsoft, Redmond, WA, USA) were performed. […]

IL8 [4] = experiment: IL8 gene expression (qPCR) in primary human dermal fibroblasts; conditions: 30 hours of treatment, normalized against POLR2A, concentration given by sample
Experimental: as §2

HAS2 = HAS2 gene expression (qPCR) in primary human dermal fibroblasts; conditions: 30 hours of treatment, normalized against POLR2A, concentration given by sample
Experimental: as §2

Structure (SMILES) | CRABP2 Average Fold Change over untreated (CRABP2 [1]) [fold] | HAS3 Average Fold Change over untreated (HAS3) [fold] | HBEGF Average Fold Change over untreated (HBEGF) [fold] | IL8 Average Fold Change over untreated (IL8 [2]) [fold] | CRABP2 Average Fold Change over untreated (CRABP2 [3]) [fold] | IL8 Average Fold Change over untreated (IL8 [4]) [fold] | HAS2 Average Fold Change over untreated (HAS2) [fold]
CC1=C(/C=C/C(C)=C/C=C/C(C)=C/CO)C(C)(C)CCC1 [Sample 2-3, Retinol] | 3.95 | 3.05 | 3.50 | 2.30 | – | – | –
CC1=C(/C=C/C(C)=C/C=C/C(C)=C/CO)C(C)(C)CCC1 [Sample 1-2, Retinol] | – | – | – | – | 1.44 | 2.05 | 0.79
CC1=C(/C=C/C(C)=C/C=C/C(C)=C/CO)C(C)(C)CCC1 [Sample 1-3, Retinol] | – | – | – | – | 4.25 | 18.83 | 0.50
